Results published in patent US8357635B2, “Microbiocides” (Syngenta Crop Protection LLC, priority 2009, dated 2013).
Values joined by “and” are separate entries in the source; they are usually repeats but may differ in a detail not shown here. Identical values can stand only once.

Key:
Puccinia recondita [1] = assay: Protective action against Puccinia recondita (brown rust) on wheat leaf segments; assay type: in vivo; conditions: foliar, 192 h, 0.02% active ingredient sprayed on wheat leaf segments, assessed 8 days after inoculation, read-out: preventive fungicidal activity (inhibition)
Method: (§1) Wheat leaf segments were placed on agar in multiwell plates (24-well format) and sprayed with test solutions (0.02% active ingredient). After drying, the leaf disks were inoculated with a spore suspension of the fungus. After appropriate incubation the activity of a compound was assessed 8 days after inoculation as preventive fungicidal activity.

[2] = test system: Erysiphe graminis f.sp. tritici; assay: Action against Erysiphe graminis f.sp. tritici (wheat powdery mildew), wheat leaf segments; assay type: in vivo; conditions: Blumeria graminis, foliar, 168 h; 0.02% active ingredient sprayed on wheat leaf segments, assessed 7 days after inoculation; read-out: preventive fungicidal activity (inhibition)
Method: as §1, with “7” for “8”

Botrytis cinerea = assay: Action against Botrytis cinerea - fungal growth assay; assay type: cell-based; conditions: 0.002% active ingredient, PDB broth, 24° C., photometric after 3-4 days
Method: (§2) Conidia of the fungus from cryogenic storage was directly mixed into nutrient broth (PDB potato dextrose broth). After placing a (DMSO) solution of the test compounds (0.002% active ingredient) into a microtiter plate (96-well format) the nutrient broth containing the fungal spores was added. The test plates were incubated at 24° C. and the inhibition of growth was measured photometrically after 3-4 days. The activity of a compound was expressed as fungal growth inhibition (0=no growth inhibition, ratings of 80% to 99% mean good to very good inhibition, 100%=complete inhibition).

Septoria tritici = assay: Action against Septoria tritici - fungal growth assay; assay type: cell-based; conditions: Zymoseptoria tritici; 0.002% active ingredient, PDB broth, 24° C., photometric after 72 hrs
Method: as §2, with “storage were” for “storage was”, “was determined” for “was measured”, “after 72 hrs.” for “after 3-4 days.”

Pyrenophora teres = assay: Action against Pyrenophora teres (net blotch) on barley leaf segments; assay type: in vivo; conditions: foliar, 96 h, 0.02% active ingredient sprayed on barley leaf segments, assessed 4 days after inoculation, read-out: preventive fungicidal activity (inhibition)
Method: as §1, with “Barley” for “Wheat”, “4” for “8”

[3] = test system: Mycosphaerella arachidis (Cercospora arachidicola); assay: Action against Mycosphaerella arachidis (early leaf spot of groundnut) - fungal growth assay; assay type: cell-based; conditions: 0.002% active ingredient, PDB broth, 24° C., photometric after 6-7 days
Method: as §2, with “storage were” for “storage was”, “after 6-7” for “after 3-4”

[4] = test system: Monographella nivalis (Fusarium nivale, Microdochium nivale); assay: Action against Monographella nivalis (snow mould) - fungal growth assay; assay type: cell-based; conditions: 0.002% active ingredient, PDB broth, 24° C., photometric after 72 hrs
Method: as §2, with “storage were” for “storage was”, “a DMSO-solution” for “a (DMSO) solution”, “after 72 hrs” for “after 3-4 days. The activity of a compound was expressed as fungal growth inhibition”

Puccinia recondita [5] = assay: Curative action against Puccinia recondita (brown rust) on wheat leaf segments; assay type: in vivo; conditions: foliar, 0.02% active ingredient sprayed one day after inoculation on wheat leaf segments, assessed 8 days after inoculation, read-out: curative fungicidal activity (inhibition)
Method: Wheat leaf segments were placed on agar in multiwell plates (24-well format) and inoculated with a spore suspension of the fungus. One day after inoculation the leaf segments were sprayed with test solutions (0.02% active ingredient). After appropriate incubation the activity of a compound was assessed 8 days after inoculation as curative fungicidal activity.

Rhizoctonia solani = assay: Action against Rhizoctonia solani - fungal growth assay; assay type: cell-based; conditions: 0.002% active ingredient, PDB broth, 24° C., photometric after 3-4 days
Method: as §2, with “Mycelial fragments of a newly grown liquid culture” for “Conidia”, “were” for “from cryogenic storage was”

| Structure (SMILES) | melting point | inhibition at 0.02 % strength (Puccinia recondita [1]) | inhibition at 0.02 % strength [2] | inhibition at 0.002 % strength (Botrytis cinerea) | inhibition at 0.002 % strength (Septoria tritici) | inhibition at 0.02 % strength (Pyrenophora teres) | inhibition at 0.002 % strength [3] | inhibition at 0.002 % strength [4] | inhibition at 0.02 % strength (Puccinia recondita [5]) | inhibition at 0.002 % strength (Rhizoctonia solani) |
| --- | --- | --- | --- | --- | --- | --- | --- | --- | --- | --- |
| CON(C(=O)c1cn(C)nc1C(F)F)C(C)[C@@H]1C[C@H]1c1c(Cl)sc(Cl)c1Cl (relative stereo) [Compound 1.063, trans 3-Difluoromethyl-1-methyl-1H-pyrazole-4-carboxylic acid methoxy-{1-[2-(2,4,5-trichloro-thiophen-3-yl)-cyclopropyl]-ethyl}-amide] | 110 to 113 °C and 110 to 130 °C | – | – | – | – | – | – | – | – | – |
| CON(C(=O)c1cn(C)nc1C(F)F)C(C)C1CC1c1ccc(Cl)cc1Cl (single isomer, unassigned) [Compound 1.018A, trans-3-difluoromethyl-1-methyl-1H-pyrazole-4-carboxylic acid {1-[2-(2,4-dichlorophenyl)-cyclopropyl]-ethyl}-methoxy-amide] | 133 to 135 °C | – | – | – | – | – | – | – | – | – |
| CON(C(=O)c1cn(C)nc1C(F)F)C(C)C1CC1c1ccc(Cl)cc1Cl (single isomer, unassigned) [Compound 1.018B, trans-3-difluoromethyl-1-methyl-1H-pyrazole-4-carboxylic acid {1-[2-(2,4-dichlorophenyl)-cyclopropyl]-ethyl}-methoxy-amide] | 142 to 144 °C | – | – | – | – | – | – | – | – | – |
| CON(C(=O)c1cn(C)nc1C(F)F)C(C)C1CC1c1ccccc1Cl (stereo not drawn) [Compound 1.011A, trans 3-difluoromethyl-1-methyl-1H-pyrazole-4-carboxylic acid {1-[2-(2-chloro-phenyl)-cyclopropyl]-ethyl}-methoxy-amide] | – | ≥ 80% | ≥ 80% | ≥ 80% | ≥ 80% | ≥ 80% | ≥ 80% | ≥ 80% | – | – |
| CON(C(=O)c1cn(C)nc1C(F)F)C(C)C1CC1c1ccc(Cl)cc1Cl (stereo not drawn) [Compound 1.018A, trans-3-difluoromethyl-1-methyl-1H-pyrazole-4-carboxylic acid {1-[2-(2,4-dichlorophenyl)-cyclopropyl]-ethyl}-methoxy-amide] | – | ≥ 80% | ≥ 80% | ≥ 80% | ≥ 80% | ≥ 80% | ≥ 80% | ≥ 80% | – | – |
| CON(C(=O)c1cn(C)nc1C(F)F)C(C)C1CC1c1ccc(Cl)cc1Cl (stereo not drawn) [Compound 1.018B, trans-3-difluoromethyl-1-methyl-1H-pyrazole-4-carboxylic acid {1-[2-(2,4-dichlorophenyl)-cyclopropyl]-ethyl}-methoxy-amide] | – | – | – | – | – | – | – | – | ≥ 80% | – |
| CON(C(=O)c1cn(C)nc1C(F)F)C(C)C1CC1c1c(F)cccc1Cl (stereo not drawn) [Compound 1.027, trans 3-difluoromethyl-1-methyl-1H-pyrazole-4-carboxylic acid{1-[2-(2-chloro-6-fluoro-phenyl)-cyclopropyl]-ethyl}-methoxy-amide] | – | ≥ 80% | ≥ 80% | ≥ 80% | ≥ 80% | ≥ 80% | ≥ 80% | ≥ 80% | ≥ 80% | – |
| CON(C(=O)c1cn(C)nc1C(F)F)C(C)C1CC1c1c(Cl)cccc1Cl (stereo not drawn) [Compound 1.028, trans-3-difluoromethyl-1-methyl-1H-pyrazole-4-carboxylic acid {1-[2-(2,6-dichlorophenyl)-cyclopropyl]-ethyl}-methoxy-amide] | – | ≥ 80% | ≥ 80% | ≥ 80% | ≥ 80% | ≥ 80% | ≥ 80% | ≥ 80% | ≥ 80% | ≥ 80% |
| CON(C(=O)c1cn(C)nc1C(F)F)C(C)C1CC1c1c(Cl)cc(Cl)cc1Cl (stereo not drawn) [Compound 1.034, trans-3-difluoromethyl-1-methyl-1H-pyrazole-4-carboxylic acid {1-[2-(2,4,6-trichlorophenyl)-cyclopropyl]-ethyl}-methoxy-amide] | – | ≥ 80% | ≥ 80% | ≥ 80% | ≥ 80% | ≥ 80% | ≥ 80% | ≥ 80% | ≥ 80% | ≥ 80% |
